Measurements reported in patent publication US8993717B2, “Gadd45beta targeting agents” (Imperial Innovations Limited, priority 2009, dated 2015).
Where two headings read alike, the source gives them in different places. Square brackets hold non-standard residues; d marks the D form. Peptide text beside a SMILES is read from it. * marks the point of attachment. Cbz = O=C(OCc1ccccc1)*

Assays:
[1] = molecular target: T1, Gadd45β/MKK7 interaction (Homo sapiens, UniProt O14733); assay: ELISA competition assay of biotin-hGadd45β binding to coated GST-MKK7
T1 construct: The GST-fused full-length kinase was coated for 16 h at 4° C., at a concentration of 42 nM; made in house
T1 sequence (O14733 1-419): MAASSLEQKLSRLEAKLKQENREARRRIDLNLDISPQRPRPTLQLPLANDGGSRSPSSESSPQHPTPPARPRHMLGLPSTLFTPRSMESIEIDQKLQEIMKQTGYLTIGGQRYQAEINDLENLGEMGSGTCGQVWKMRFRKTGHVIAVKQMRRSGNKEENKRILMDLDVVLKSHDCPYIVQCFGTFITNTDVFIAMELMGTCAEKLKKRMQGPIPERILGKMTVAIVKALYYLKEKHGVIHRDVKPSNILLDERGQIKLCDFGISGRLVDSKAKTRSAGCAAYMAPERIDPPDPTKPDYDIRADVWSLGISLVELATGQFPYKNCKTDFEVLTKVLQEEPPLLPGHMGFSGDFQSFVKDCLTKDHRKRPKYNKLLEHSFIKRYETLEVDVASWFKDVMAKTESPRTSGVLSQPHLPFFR
In short: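 GST-MKK7 (42 nM) coated in Tris pH 7.5 buffer, 16 h, 4 °C; biotin-hGadd45β (21 nM) added with competitor peptides (0.01–100 nM), 1 h, 37 °C. Streptavidin-HRP/o-phenylenediamine read at 490 nm; binding expressed as % of signal without competitor.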

[2] = system: sh-NS-expressing ARH-77 cells
[3] = system: primary multiple myeloma cells; assay: Trypan blue exclusion assay in primary multiple myeloma cells from patients; assay type: cell-based, human; conditions: 1 μM or 10 μM, 48 hrs, 5 patients
Excerpt: To confirm that Z-/mDTPs retain cytotoxic activity in primary multiple myeloma cells, we examined the effects of Z-DTP1 and Z-DTP2 on the survival of multiple myeloma cells isolated from patients with a clinical diagnosis of multiple myeloma. To this end, multiple myeloma cells were purified from bone marrow (BM) aspirates of multiple myeloma patients by […], using CD138-conjugated magnetic beads, essentially as described in the reference by Hideshima T. et all 2006, Blood 107: 4053-4062. The purity of multiple myeloma cells was confirmed by flow cytometric, using and CD138 and anti-CD45 antibodies, also essentially in accordance with the procedure described in the reference by Hideshima T. et all 2006, Blood 107: 4053-4062. Purified CD138^+ BM cells were then cultured at a concentration of 4×10^5 cells/ml in wells of 96-well plates and treated with either 1 μM or 10 μM of Z-DTP1, Z-DTP2 or Z-DNC for 48 hrs. Cell viability was measured by cell counting using trypan blue exclusion assays (FIGS. 14A, 14B, 14C, 14D, and 14E).

[4] = system: sh-MKK7-expressing ARH-77 cells
[5] = system: U266, KMS-11, NCI-H929, BJAB and U937 tumour cell lines; assay: [3H]thymidine incorporation assay in tumour cell lines at 10 μM; assay type: cell-based, human; conditions: up to 144 hrs, result in words
Procedure: All experiments were performed in triplicate.

[6] = Table V, FIG. 3C, read-out: IC50 ELISA

| IC50 ([1]; Table V, peptides 0.01-10 nM, read-out: IC50 ELISA) [nM] | SMILES | IC50 [1] [nM] | IC50 [2] [nM] | cytotoxic activity in primary multiple myeloma cells [3] | IC50 [4] [nM] | tumoricidal/cytotoxic activity in tumour cell lines [5] | IC50 [1, 6] [nM] |
| --- | --- | --- | --- | --- | --- | --- | --- |
| – | CC(=O)N[C@H](Cc1ccc(O)cc1)C(=O)N[C@H](CCCNC(=N)N)C(=O)N[C@H](Cc1ccccc1)C(N)=O [Compound 17, Ac-D-Tyr-D-Arg-D-Phe-NH2] (Ac-[dY]-[dR]-[dF]-NH2) | 0.157 | 303 | Strong cytotoxic activity | > 10000 | – | – |
| – | N=C(N)NCCC[C@@H](NC(=O)[C@@H](CCC(=O)O)NC(=O)[C@@H](Cc1ccc(O)cc1)NC(=O)OCc1ccccc1)C(=O)N[C@H](Cc1ccccc1)C(N)=O [Compound 9, Z-D-Tyr-D-Glu-D-Arg-D-Phe-NH2] (Cbz-[dY][dE][dR][dF]-NH2) | – | 302 | strong cytotoxic activity | > 10000 | high cytotoxic activity | – |
| – | CC(=O)N[C@H](Cc1ccc(O)cc1)C(=O)N[C@H](CC(=O)O)C(=O)N[C@H](Cc1c[nH]cn1)C(=O)N[C@H](Cc1ccccc1)C(N)=O [DTP1, Acetyl-(D-Tyr)-(D-Asp)-(D-His)-(D-Phe)-NH2] (Ac-[dY][dD][dH][dF]-NH2) | – | – | – | – | not | 0.22 |
| 0.22 | NC(=O)[C@@H](Cc1ccccc1)NC(=O)[C@@H](Cc1c[nH]cn1)NC(=O)[C@@H](CC(=O)O)NC(=O)[C@@H](Cc1ccc(O)cc1)NC(=O)OCc1ccccc1 [Compound 1, Z-Tyr-Asp-His-Phe-NH2] (Cbz-[dY][dD][dH][dF]-NH2) | – | 1400 | strong cytotoxic activity | > 10000 | – | – |
| – | CC(=O)N[C@H](Cc1ccc(O)cc1)C(=O)N[C@H](CCC(=O)O)C(=O)N[C@H](CCCNC(=N)N)C(=O)N[C@H](Cc1ccccc1)C(N)=O [DTP2, Acetyl-(D-Tyr)-(D-Glu)-(D-Arg)-(D-Phe)-NH2] (Ac-[dY][dE][dR][dF]-NH2) | – | – | – | – | inactivity | 0.19 |
